From ChEMBL document CHEMBL4251748, “Discovery of Cytochrome P450 4F11 Activated Inhibitors of Stearoyl Coenzyme A Desaturase” (J Med Chem, 2018)

Legend:
[1] = test system: NCI-H1155; assay: Ratio of EC50 for cytotoxicity against human NCI-H1155 cells expressing CYP4F11 incubated for 4 days in presence of sodium oleate to EC50 for cytotoxicity against human NCI-H1155 cells expressing CYP4F11 incubated for 4 days in absence of sodium oleate; type: functional
[2] = test system: NCI-H2122; assay: Cytotoxicity against human NCI-H2122 cells incubated for 4 days; type: functional, cell-based; conditions: NCI-H2122, 96 h
[3] = test system: NCI-H1155; assay: Cytotoxicity against human NCI-H1155 cells expressing pLVX empty vector incubated for 4 days; type: functional, cell-based; conditions: NCI-H1155, 96 h
[4] = biological target: T1, CYP4F11 (Homo sapiens, UniProt Q9HBI6); assay: Drug metabolism in human NCI-H1155 cells assessed as CYP4F11-meidated O-demethylation by measuring half life at 500 nM by LC-MS/MS analysis; type: ADME, cell-based
T1 sequence (Q9HBI6 whole entry): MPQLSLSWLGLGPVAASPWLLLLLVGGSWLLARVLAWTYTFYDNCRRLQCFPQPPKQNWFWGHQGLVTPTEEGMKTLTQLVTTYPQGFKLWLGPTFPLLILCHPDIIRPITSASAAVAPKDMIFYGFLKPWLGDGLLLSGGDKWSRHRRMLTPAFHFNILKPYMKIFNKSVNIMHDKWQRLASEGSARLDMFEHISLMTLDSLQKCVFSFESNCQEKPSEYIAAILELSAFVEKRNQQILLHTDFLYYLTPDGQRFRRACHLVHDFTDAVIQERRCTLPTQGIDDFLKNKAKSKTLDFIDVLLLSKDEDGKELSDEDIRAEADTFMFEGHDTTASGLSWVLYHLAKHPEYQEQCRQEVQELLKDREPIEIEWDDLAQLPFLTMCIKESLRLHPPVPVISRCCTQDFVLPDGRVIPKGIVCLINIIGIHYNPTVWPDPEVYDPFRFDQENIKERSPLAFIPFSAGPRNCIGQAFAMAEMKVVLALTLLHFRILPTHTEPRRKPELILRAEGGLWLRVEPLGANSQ

[5] = test system: NCI-H1155; assay: Cytotoxicity against human NCI-H1155 cells expressing CYP4F11 incubated for 4 days; type: functional, cell-based; conditions: NCI-H1155, 96 h
[6] = test system: NCI-H1155; assay: Cytotoxicity against human NCI-H1155 cells expressing CYP4F11 incubated for 4 days in presence of sodium oleate; type: functional, cell-based; conditions: NCI-H1155, 96 h
[7] = Drug level in human NCI-H1155 cells after 4 hrs by LC-MS/MS analysis; type: ADME, cell-based; conditions: nci-h1155, 4 h
[8] = Half life in mouse liver S9 fraction by LC-MS/MS analysis; type: ADME, subcellular
[9] = Half life in human NCI-H1155 cells at 500 nM by LC-MS/MS analysis; type: ADME, cell-based
[10] = test system: NCI-H1155; assay: Cytotoxicity against human NCI-H1155 cells incubated for 4 days in presence of sodium oleate; type: functional, cell-based; conditions: NCI-H1155, 96 h

In the case of `COc1ccc(CCNC(=O)NC(=O)c2ccc(COc3ccccc3)cc2)cc1`, the “Ratio EC50” value [1] is reported as 100, the EC50 [2] is reported as 10 nM and the EC50 [3] is reported as over 50000 nM. It also gave a half-life at 0.5 µM [4] of 7.5 h, an EC50 [5] of 34 nM and an EC50 [6] of 3600 nM. For the same molecule, the Drug uptake [7] was 1670 nM, the half-life [8] was 2.63 h and the half-life at 0.5 µM [9] was over 48 h. It also gave an EC50 [10] of over 50000 nM.
